This is an account of results in ChEMBL document CHEMBL5303573, “Mapping human microbiome drug metabolism by gut bacteria and their genes” (Nature, 2019).

The series concerns the target T1, Acyltransferase (Bacteroides thetaiotaomicron, UniProt Q8A575).
T1 sequence (Q8A575 whole entry): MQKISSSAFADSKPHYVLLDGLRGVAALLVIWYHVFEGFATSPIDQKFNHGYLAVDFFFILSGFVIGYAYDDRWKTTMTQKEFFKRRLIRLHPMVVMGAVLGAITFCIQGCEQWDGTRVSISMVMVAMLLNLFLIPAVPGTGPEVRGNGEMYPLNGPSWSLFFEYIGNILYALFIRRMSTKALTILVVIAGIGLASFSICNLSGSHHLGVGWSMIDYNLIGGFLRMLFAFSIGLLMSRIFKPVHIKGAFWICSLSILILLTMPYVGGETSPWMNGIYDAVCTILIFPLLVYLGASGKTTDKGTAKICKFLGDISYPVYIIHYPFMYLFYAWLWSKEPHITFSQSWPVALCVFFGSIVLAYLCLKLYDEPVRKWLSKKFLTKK
Briefly: The drug is tested on Bacteroides thetaiotaomicron strain: VPI-5482 for biotransformation. The drug concentrations were measured before and after a 12-h incubation by liquid-chromatography-coupled mass spectrometry (LC–MS). In kind it is ADME. Also on record: dose 2 uM. To be noted: 2 µM.

Consider `C[C@]12CCC(=O)C=C1[C@@H]1C[C@@H]1[C@H]1[C@@H]3[C@@H]4C[C@@H]4[C@@]4(CCC(=O)O4)[C@@]3(C)CC[C@@H]12` [DROSPIRENONE], for which the “Bacterial Biotransformation” value is on record as “Compound NOT metabolized”.
